PMC4206343, “A Novel Aminothiazole KY-05009 with Potential to Inhibit Traf2- and Nck-Interacting Kinase (TNIK) Attenuates TGF-β1-Mediated Epithelial-to-Mesenchymal Transition in Human Lung Adenocarcinoma A549 Cells” (PLoS ONE, 2014)

Target: Traf2- and Nck-interacting kinase (TNIK) (Homo sapiens, UniProt Q9UKE5)
Test: ATP competition binding assay (KdELECT, KINOMEscan), triplicate 11-point dose-response curves

Chain of Traf2- and Nck-interacting kinase (TNIK) (Q9UKE5 whole entry): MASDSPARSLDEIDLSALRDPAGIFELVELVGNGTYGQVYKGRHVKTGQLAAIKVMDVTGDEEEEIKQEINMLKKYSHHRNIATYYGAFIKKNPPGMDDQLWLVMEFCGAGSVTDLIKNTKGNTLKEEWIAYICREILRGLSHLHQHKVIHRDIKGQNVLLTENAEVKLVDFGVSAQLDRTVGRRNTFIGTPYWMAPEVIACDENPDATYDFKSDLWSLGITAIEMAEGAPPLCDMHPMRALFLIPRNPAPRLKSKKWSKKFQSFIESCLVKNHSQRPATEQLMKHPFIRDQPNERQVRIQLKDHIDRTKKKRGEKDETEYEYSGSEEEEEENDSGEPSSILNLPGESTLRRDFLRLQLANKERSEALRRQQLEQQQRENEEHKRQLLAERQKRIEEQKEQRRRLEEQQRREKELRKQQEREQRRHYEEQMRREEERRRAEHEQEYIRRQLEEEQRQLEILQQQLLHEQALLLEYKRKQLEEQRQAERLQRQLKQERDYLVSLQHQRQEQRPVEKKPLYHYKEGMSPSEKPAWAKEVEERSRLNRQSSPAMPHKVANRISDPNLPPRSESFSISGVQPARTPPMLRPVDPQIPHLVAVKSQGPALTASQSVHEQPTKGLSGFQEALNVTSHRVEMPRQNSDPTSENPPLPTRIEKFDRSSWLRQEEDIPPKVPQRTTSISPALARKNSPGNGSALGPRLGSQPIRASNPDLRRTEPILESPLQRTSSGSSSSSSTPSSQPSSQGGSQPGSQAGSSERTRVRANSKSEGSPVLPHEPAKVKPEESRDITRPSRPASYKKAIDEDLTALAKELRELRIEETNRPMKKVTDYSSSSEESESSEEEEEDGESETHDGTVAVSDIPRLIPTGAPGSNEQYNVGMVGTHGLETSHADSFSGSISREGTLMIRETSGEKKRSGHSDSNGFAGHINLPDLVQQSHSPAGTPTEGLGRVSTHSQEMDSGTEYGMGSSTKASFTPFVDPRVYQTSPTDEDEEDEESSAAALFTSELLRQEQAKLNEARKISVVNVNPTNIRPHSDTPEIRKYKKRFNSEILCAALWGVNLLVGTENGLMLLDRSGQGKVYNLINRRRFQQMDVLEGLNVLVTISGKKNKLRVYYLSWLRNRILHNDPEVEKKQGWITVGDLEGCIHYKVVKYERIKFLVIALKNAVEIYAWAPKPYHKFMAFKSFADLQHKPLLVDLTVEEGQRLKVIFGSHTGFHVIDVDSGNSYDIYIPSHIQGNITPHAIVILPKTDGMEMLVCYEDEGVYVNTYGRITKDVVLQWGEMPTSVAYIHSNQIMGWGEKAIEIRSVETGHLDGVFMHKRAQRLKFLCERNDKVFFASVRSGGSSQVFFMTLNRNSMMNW

Q: With `Cc1ccc(C(=O)Nc2sc(Nc3ccccc3)nc2C(N)=O)cc1` [KY-05009, 5-(4-methylbenzamido)-2-(phenylamino)thiazole-4-carboxamide] as the molecule, how does the Ki read?
A: The Ki was 100 nM.
